Laboratory results as given in PubChem BioAssay AID256 (DTP/NCI, 2004).
Values joined by “and” are separate entries in the source; they are usually repeats but may differ in a detail not shown here. Equal entries are not always repeated. Inconclusive results and toxic doses are left out. Non-standard residues stand in square brackets, D forms with d. Residues, ends and D or L forms follow the SMILES beside them. *: point of attachment. Cbz = O=C(OCc1ccccc1)*; Abu = CC[CH](N)C(=O)O

Test system: CD2F1 mice, L1210 leukemia ip, survival T/C
Assay: NCI In Vivo Anticancer Drug Screen. Data for tumor model L1210 Leukemia (intraperitoneal) in CD2F1 (CDF1) mice
Conditions: higher = longer survival
How it was run: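 Antitumor effect is scored in animals hosting a serially transplanted tumor. Values compare compound-dosed animals against vehicle-only controls as a simple quotient.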

[1] = endpoint: mean survival time, dose: 6.25 mg/kg/injection, schedule: Q01DX009 (ip), vehicle: saline with Tween-80
[2] = endpoint: mean survival time, dose: 12.5 mg/kg/injection, schedule: Q01DX009 (ip), vehicle: saline with Tween-80
[3] = endpoint: mean survival time, dose: 25.0 mg/kg/injection, schedule: Q01DX009 (ip), vehicle: saline with Tween-80
[4] = endpoint: mean survival time, dose: 50.0 mg/kg/injection, schedule: Q01DX009 (ip), vehicle: saline with Tween-80
[5] = endpoint: mean survival time, dose: 100.0 mg/kg/injection, schedule: Q01DX009 (ip), vehicle: saline with Tween-80
[6] = endpoint: mean survival time, dose: 100.0 mg/kg/injection, schedule: Q04DX003 (ip), vehicle: saline with Tween-80
[7] = endpoint: mean survival time, dose: 200.0 mg/kg/injection, schedule: Q01DX009 (ip), vehicle: saline with Tween-80
[8] = endpoint: mean survival time, dose: 200.0 mg/kg/injection, schedule: Q04DX003 (ip), vehicle: saline with Tween-80
[9] = endpoint: mean survival time, dose: 400.0 mg/kg/injection, schedule: Q01DX009 (ip), vehicle: saline with Tween-80
[10] = endpoint: mean survival time, dose: 200.0 mg/kg/injection, schedule: Q01DX001 (ip), vehicle: saline with Tween-80
[11] = endpoint: mean survival time, dose: 400.0 mg/kg/injection, schedule: Q01DX001 (ip), vehicle: saline with Tween-80

In the case of `CC(C)c1ccccc(=O)c1O.CC(C)c1ccccc(=O)c1O.[Cu]`, the T/C [1] is reported as 102 % of control, the T/C [2] is reported as 100 % of control and the T/C [3] is reported as 103 % of control.
With `COC1C(/C=C/C(C)=O)OC2OC(C)(C)OC21` (stereo unspecified) the T/C (endpoint: mean survival time, dose: 6.25 mg/kg/injection, schedule: Q01DX009 (ip), vehicle: saline) was 110 % of control, the T/C (endpoint: mean survival time, dose: 12.5 mg/kg/injection, schedule: Q01DX009 (ip), vehicle: saline) was 110 % of control and the T/C (endpoint: mean survival time, dose: 25.0 mg/kg/injection, schedule: Q01DX009 (ip), vehicle: saline) was 95 % of control. For the same compound, the T/C (endpoint: mean survival time, dose: 50.0 mg/kg/injection, schedule: Q01DX009 (ip), vehicle: saline) was 103 % of control, the T/C (endpoint: mean survival time, dose: 100.0 mg/kg/injection, schedule: Q01DX009 (ip), vehicle: saline) was 109 % of control and the T/C (endpoint: mean survival time, dose: 200.0 mg/kg/injection, schedule: Q01DX009 (ip), vehicle: saline) was 116 % of control.
With `Cc1cccc(OCC(=O)O)c1` the T/C [4] was 97 % of control, the T/C [5] was 95 % of control and the T/C [6] was 95 % of control. The T/C [7] was 90 % of control and the T/C [8] was 93 % of control.
For `CCC(O)C(C)[N+](=O)[O-]` (stereo unspecified), the T/C [4] was 95 % of control, the T/C [5] was 102 % of control and the T/C [7] was 95 % of control.
For `Cc1ccc(C(=O)c2ccccc2Cl)cc1`, the T/C (endpoint: mean survival time, dose: 15.0 mg/kg/injection, schedule: Q01DX009 (ip), vehicle: Klucel (hydroxypropylcellulose) (HPC)) was 91 % of control, the T/C (endpoint: mean survival time, dose: 30.0 mg/kg/injection, schedule: Q01DX009 (ip), vehicle: Klucel (hydroxypropylcellulose) (HPC)) was 87 % of control and the T/C (endpoint: mean survival time, dose: 60.0 mg/kg/injection, schedule: Q01DX009 (ip), vehicle: Klucel (hydroxypropylcellulose) (HPC)) was 87 % of control.
For `CC1=CC(=O)c2ccccc2C1=O`, the T/C (endpoint: mean survival time, dose: 9.0 mg/kg/injection, schedule: Q01DX009 (ip), vehicle: other) was 100 % of control, the T/C (endpoint: mean survival time, dose: 13.5 mg/kg/injection, schedule: Q01DX009 (ip), vehicle: other) was 114 % of control and the T/C (endpoint: mean survival time, dose: 20.0 mg/kg/injection, schedule: Q01DX001 (ip), vehicle: other) was 95 % of control. For the same compound, the T/C (endpoint: mean survival time, dose: 20.0 mg/kg/injection, schedule: Q01DX009 (ip), vehicle: other) was 97 % of control, the T/C (endpoint: mean survival time, dose: 30.0 mg/kg/injection, schedule: Q01DX009 (ip), vehicle: other) was 97 % of control and the T/C (endpoint: mean survival time, dose: 40.0 mg/kg/injection, schedule: Q01DX001 (ip), vehicle: other) was 104 % of control. For the same compound, the T/C (endpoint: mean survival time, dose: 60.0 mg/kg/injection, schedule: Q01DX001 (ip), vehicle: other) was 104 % of control and the T/C (endpoint: mean survival time, dose: 90.0 mg/kg/injection, schedule: Q01DX001 (ip), vehicle: other) was 104 % of control.
`S=C(Nc1ccccc1)N1CCCC1` was tested, and the T/C [4] was 96 % of control, the T/C [5] was 100 % of control and the T/C [7] was 102 % of control.
`COC1/C=C\C=C(/C)C(=O)NC2=CC(=O)C=C(C2=O)C(OC)C(C)CC(OC)C(OC)C(C)/C=C(/C)C1OC(N)=O` (stereo unspecified) was tested, and the T/C (endpoint: mean survival time, dose: 0.18 mg/kg/injection, schedule: Q01DX009 (ip), vehicle: Klucel (hydroxypropylcellulose) (HPC)) was 108 % of control, the T/C (endpoint: mean survival time, dose: 0.37 mg/kg/injection, schedule: Q01DX009 (ip), vehicle: Klucel (hydroxypropylcellulose) (HPC)) was 107 % of control and the T/C (endpoint: mean survival time, dose: 0.75 mg/kg/injection, schedule: Q01DX009 (ip), vehicle: Klucel (hydroxypropylcellulose) (HPC)) was 120 % of control and 98 % of control. The T/C (endpoint: mean survival time, dose: 1.5 mg/kg/injection, schedule: Q01DX009 (ip), vehicle: Klucel (hydroxypropylcellulose) (HPC)) was 93 % of control and 103 % of control and the T/C (endpoint: mean survival time, dose: 3.0 mg/kg/injection, schedule: Q01DX009 (ip), vehicle: Klucel (hydroxypropylcellulose) (HPC)) was 95 % of control and 105 % of control.
With `O=C1C(NCC(O)CO)=C(N2CC2)C(=O)C(NCC(O)CO)=C1N1CC1` (stereo unspecified) the T/C (endpoint: mean survival time, dose: 1.25 mg/kg/injection, schedule: Q01DX009 (oral), vehicle: saline) was 91 % of control and 103 % of control, the T/C (endpoint: mean survival time, dose: 2.5 mg/kg/injection, schedule: Q01DX009 (oral), vehicle: saline) was 98 % of control and the T/C (endpoint: mean survival time, dose: 10.0 mg/kg/injection, schedule: Q01DX009 (oral), vehicle: saline) was 109 % of control. The T/C (endpoint: mean survival time, dose: 20.0 mg/kg/injection, schedule: Q01DX009 (oral), vehicle: saline) was 104 % of control and 105 % of control, the T/C (endpoint: median survival time, dose: 0.5 mg/kg/injection, schedule: Q01DX009 (ip), vehicle: saline) was 123 % of control and the T/C (endpoint: median survival time, dose: 2.0 mg/kg/injection, schedule: Q01DX009 (ip), vehicle: saline) was 163 % of control. For the same compound, the T/C (endpoint: median survival time, dose: 4.0 mg/kg/injection, schedule: Q01DX009 (ip), vehicle: saline) was 228 % of control and the T/C (endpoint: median survival time, dose: 8.0 mg/kg/injection, schedule: Q01DX009 (ip), vehicle: saline) was 195 % of control.
In the case of `BrC/C(=N\N1CCCCCC1)c1ccc(-c2ccccc2)cc1`, the T/C (endpoint: mean survival time, dose: 100.0 mg/kg/injection, schedule: Q01DX001 (ip), vehicle: saline) is reported as 92 % of control, the T/C (endpoint: mean survival time, dose: 200.0 mg/kg/injection, schedule: Q01DX001 (ip), vehicle: saline) is reported as 93 % of control and the T/C (endpoint: mean survival time, dose: 400.0 mg/kg/injection, schedule: Q01DX001 (ip), vehicle: saline) is reported as 94 % of control.
In the case of `OC(CC1=NCCS1)(c1ccccc1)c1ccccc1`, the T/C [6] is reported as 93 % of control, the T/C [8] is reported as 87 % of control and the T/C (endpoint: mean survival time, dose: 400.0 mg/kg/injection, schedule: Q04DX003 (ip), vehicle: saline with Tween-80) is reported as 98 % of control.
With `Cc1nc(Cl)c2cnccn12` the T/C (endpoint: mean survival time, dose: 12.5 mg/kg/injection, schedule: Q04DX003 (ip), vehicle: saline) was 96 % of control, the T/C (endpoint: mean survival time, dose: 25.0 mg/kg/injection, schedule: Q04DX003 (ip), vehicle: saline) was 100 % of control and the T/C (endpoint: mean survival time, dose: 50.0 mg/kg/injection, schedule: Q04DX003 (ip), vehicle: saline) was 104 % of control.
`BrCC[Se]c1ccccc1` was tested, and the T/C (endpoint: mean survival time, dose: 3.12 mg/kg/injection, schedule: Q01DX009 (ip), vehicle: saline with Tween-80) was 105 % of control, the T/C [1] was 111 % of control and the T/C [2] was 102 % of control. The T/C [3] was 115 % of control, the T/C [4] was 107 % of control and the T/C [5] was 104 % of control.
For `O=C(CC(=O)Nc1ccc([N+](=O)[O-])cc1)Nc1ccc([N+](=O)[O-])cc1`, the T/C [5] was 91 % of control, the T/C [7] was 86 % of control and the T/C [9] was 89 % of control.
`COc1cc(CNC(=O)/C(C)=C/Cl)ccc1O` was tested, and the T/C [2] was 96 % of control, the T/C [3] was 95 % of control and the T/C [4] was 101 % of control.
For `CCC(NC(=O)OCc1ccccc1)C(=O)N1CCCC1C(=O)OC` (stereo unspecified) (Cbz-[Abu]-Pro-OMe; configuration not given here), the T/C (endpoint: mean survival time, dose: 100.0 mg/kg/injection, schedule: Q01DX001 (ip), vehicle: saline with Tween-80) was 103 % of control, the T/C [10] was 104 % of control and the T/C [11] was 103 % of control.
`C=C1C(=O)OC2CC(C)C3C4OC4C(O)C3(C)C(O)C12` (stereo unspecified) was tested, and the T/C (endpoint: median survival time, dose: 3.12 mg/kg/injection, schedule: Q01DX009 (ip), vehicle: saline) was 97 % of control, the T/C (endpoint: median survival time, dose: 6.25 mg/kg/injection, schedule: Q01DX009 (ip), vehicle: saline) was 113 % of control and the T/C (endpoint: median survival time, dose: 12.5 mg/kg/injection, schedule: Q01DX009 (ip), vehicle: saline) was 101 % of control. For the same compound, the T/C (endpoint: median survival time, dose: 25.0 mg/kg/injection, schedule: Q01DX009 (ip), vehicle: saline) was 107 % of control, the T/C (endpoint: median survival time, dose: 50.0 mg/kg/injection, schedule: Q01DX009 (ip), vehicle: saline) was 109 % of control and the T/C (endpoint: median survival time, dose: 100.0 mg/kg/injection, schedule: Q01DX009 (ip), vehicle: saline) was 124 % of control.
In the case of `O=S(=O)(C#Cc1ccccc1)c1ccccc1`, the T/C (endpoint: mean survival time, dose: 25.0 mg/kg/injection, schedule: Q01DX001 (ip), vehicle: Klucel (hydroxypropylcellulose) (HPC)) is reported as 95 % of control, the T/C (endpoint: mean survival time, dose: 50.0 mg/kg/injection, schedule: Q01DX001 (ip), vehicle: Klucel (hydroxypropylcellulose) (HPC)) is reported as 102 % of control and the T/C (endpoint: mean survival time, dose: 100.0 mg/kg/injection, schedule: Q01DX001 (ip), vehicle: Klucel (hydroxypropylcellulose) (HPC)) is reported as 100 % of control.
In the case of `COc1ccc(OC)c(/C=C(/C#N)C(N)=O)c1`, the T/C (endpoint: mean survival time, dose: 50.0 mg/kg/injection, schedule: Q04DX002 (ip), vehicle: saline with Tween-80) is reported as 104 % of control, the T/C (endpoint: mean survival time, dose: 100.0 mg/kg/injection, schedule: Q04DX002 (ip), vehicle: saline with Tween-80) is reported as 93 % of control and the T/C [10] is reported as 91 % of control. The T/C (endpoint: mean survival time, dose: 200.0 mg/kg/injection, schedule: Q04DX002 (ip), vehicle: saline with Tween-80) was 93 % of control and the T/C [11] was 90 % of control.
For `CCCCO.[Ti]`, the T/C [5] was 103 % of control, the T/C [7] was 97 % of control and the T/C [9] was 104 % of control.
`CC1CN1C(=O)Nc1cccc2c(NC(=O)N3CC3C)cccc12` (stereo unspecified) was tested, and the T/C (endpoint: mean survival time, dose: 28.0 mg/kg/injection, schedule: Q01DX009 (ip), vehicle: Klucel (hydroxypropylcellulose) (HPC)) was 151 % of control.
For `CN(C)CCC[n+]1cc2c3ccccc3c(N)cc2c2ccccc21`, the T/C (endpoint: mean survival time, dose: 3.13 mg/kg/injection, schedule: Q04DX003 (ip), vehicle: water) was 103 % of control, the T/C (endpoint: mean survival time, dose: 6.25 mg/kg/injection, schedule: Q04DX003 (ip), vehicle: water) was 106 % of control and the T/C (endpoint: mean survival time, dose: 12.5 mg/kg/injection, schedule: Q04DX003 (ip), vehicle: water) was 103 % of control. For the same compound, the T/C (endpoint: mean survival time, dose: 25.0 mg/kg/injection, schedule: Q04DX003 (ip), vehicle: water) was 109 % of control and the T/C (endpoint: mean survival time, dose: 50.0 mg/kg/injection, schedule: Q04DX003 (ip), vehicle: water) was 109 % of control.
